In patent US20010056084A1, “MGluR5 antagonists for the treatment of pain and anxiety” (priority 1998, published 2001):

How the values were obtained:
[1] = test system: DHPG-induced hyperalgesia in the rat hind paw; test: DHPG-induced hyperalgesia in the rat hind paw (Randall and Selitto), co-administration; format: in vivo; conditions: co-administration with DHPG to the rat hind paw
naive rat hind paw = naive rat hind paw test of mechanical hyperalgesia (Randall and Selitto), glutamate receptor agonists; format: in vivo
rat = conditions: intrathecally administered; cited from earlier work

| Compound | inhibition of DHPG-induced hyperalgesia [1] | rank order of potency as hyperalgesic agents (naive rat hind paw) | spontaneous nociceptive responses (rat) |
| --- | --- | --- | --- |
| N[C@H](C(=O)O)c1ccc(C(=O)O)cc1 [(S)-4C-PG, (S)-4-carboxyphenylglycine] | limited effect |  |  |
| CN[C@H](CC(=O)O)C(=O)O [NMDA] |  | NMDA>AMPA |  |
| N[C@@H](CCP(=O)(O)O)C(=O)O [L-AP4, L-4-phosphono-2-amino-butiric acid] |  | >L-4-phosphono-2-amino-butiric acid (L-AP4) |  |
| NC(C(=O)O)c1cc(O)cc(O)c1 (centres unmarked) [DHPG, 3,5-dihydroxyphenyiglycine] |  | DHPG>NMDA | induced an increase in spontaneous nocicepfive responses |
| N[C@@H](CCC(=O)O)C(=O)O [glutamate] |  | glutamate ˜2-chloro-3-hydroxyphenylglycine (CHPG) |  |
| Cc1o[nH]c(=O)c1CC(N)C(=O)O (centres unmarked) [AMPA] |  | AMPA>(±)-2-aminobicyclo[3.1.0]hexane-2,6-dicarboxylic acid (LY 314582) |  |
| NC1(C(=O)O)CCC2C(C(=O)O)C21 (racemic) [LY 314582, (±)-2-aminobicyclo[3.1.0]hexane-2,6-dicarboxylic acid] |  | (LY 314582)>L-4-phosphono-2-amino-butiric acid (L-AP4) |  |
